These results are taken from patent US20230285389A1, “USE OF CSF-1R KINASE INHIBITOR” (Shanghai Runshi Medical Technology Co., Ltd, priority 2020, published 2023).

Assay [1] deals with MC38 subcutaneous xenograft. Nature of the assay: Immune cell subpopulation scan in tumor tissue of MC38 xenograft model. The assay is classed as in vivo, mouse. How it is done:
MC38 cells in good condition were re-suspended to 25 million cells/mL. 200 µL of cell suspension was inoculated subcutaneously in the right armpit of each mouse. When the tumor cells formed subcutaneous xenograft in the mice and grew to an average volume of approximately 100 mm^3, the mice were randomly assigned to the dosing group and the control group. The test compounds were prepared at the desired concentrations and corresponding equal amount of solvent was used as a solvent control. The drugs were administrated orally, and administrated once per day for 24 consecutive days.
During the dosing period, the xenograft volumes of the mice and the weights of the mice were measured every 2-4 days. When the MC38 subcutaneous xenograft from the solvent control group of grew to 700-800 mm^3, the experiment was stopped. Fresh tumors removed from the mice were sheared with scissors into fragments no more than 2 mm^3. The digestive enzyme was prepared according to the instructions of Tumor Dissociation Kit. The tumor tissue mass was re-suspended with 2.5 mL of prepared enzyme solution, and was placed into a gentleMACS™ Dissociator instrument for dissociating the tumor with a selected program. After completion of dissociation, the suspension was filtered with a 70 µM filter screen to obtain a cell suspension. The cell suspension was lysed with an erythrocyte lysing agent for 10 min, centrifuged at 300 g for 5 min, and re-suspended with PBS. Desired amount of cells were taken out after cell counting. The cells were first washed twice with PBS. After washing, each sample was re-suspended with 100 µL of PBS and 0.5 µL of the fluorescent antibody prepared according to the manufacturer’s instructions to distinguish dead and live cells was added. The samples were stained in the dark at 4° C. for 30 min. After 30 min, the samples were washed twice with 1 mL of the running buffer and the tubes were centrifuged at 300 g for 5 min at 4° C. The blocking antibody diluent was prepared by adding 2 µL of blocking antibody TruStain fcX™ (anti-mouse CD16/32) per 100 µL running buffer and was added on the basis of the 100 µL system of each sample. After blocking for 10 min, according to the manufacturer’s instructions, the fluorescent antibody corresponding to the surface protein was added to the samples, and the reactant was allowed for incubation at 4° C. for 30 min. At this step, a single staining control and an FMO control were set. Then, the samples were washed twice with 1 mL of the running buffer, and centrifuged at 300 g for 5 min at 4° C. each time.
If only surface proteins were to be examined, after centrifugation, the samples were re-suspended with 300 µL of PBS and immediately input into machines, or the samples were fixed with 4% paraformaldehyde for 15 min, and centrifuged at 500 g for 7 min. The supernatants were discarded and the pellets were re-suspended with PBS and stored for further machine analysis.
If intracellular factors were to be examined as well, when the supernatants were discarded after centrifugation, 100 µL of re-suspended samples were retained. IC fixation solution in Intracellular Fixation & Permeabilization Buffer Set was added to each sample based on the 100 µL volume. The samples were placed at 4° C. for fixation for 30 min. After the fixation was completed, the samples were centrifuged at 500 g for 7 min. 10×Permeabilization Buffer was prepared into 1×membrane destructive solution with triple distilled water. After centrifugation, 2 mL of 1×membrane destructive solution was added to each sample to re-suspend the samples, and the samples were centrifuged at 500 g for 7 min. The process was repeated twice. 1×membrane destructive solution was used to prepare the intracellular fluorescent antibody as recommended in the instructions for antibody. The cells were re-suspended in a system of 100 µL per well, and placed at 4° C. to stain for 30 min. At this step, a single staining control and an FMO control were set. […]

Assay [2] has as its system CD8+ T cells co-cultured with CSF-1-induced BMDMs. The note with it: BMDMs pre-incubated with compound; co-culture 72 h.
Assay [3] has as its system IL4/IL13-polarized murine BMDMs. As to the kind of experiment: M2-biased polarization phenotype of BMDMs, flow cytometry of surface markers. The assay is classed as cell-based, BALB/c mice. The note with it: mouse-derived BMDM, 48 h. The protocol: BALB/c mice (female, 6 weeks old, healthy) were sacrificed. Bone marrow cells were taken from their femurs and tibia, and seeded into a 6-well culture plate at appropriate densities ([…], per well) after erythrobiasis treatment. 100 ng/mL of CSF-1 factor was added to each well to induce macrophages (Bone marrow-derived macrophages, BMDM). After 7 days of induction, the cell culture medium was changed. CSF-1 factor was added at the same concentration as above, and M2 polarization of macrophages was induced with 10 ng/mL of IL4 and 10 ng/mL of IL13. While inducing polarization, compounds at various concentrations were added into test wells and negative control wells. After 48 h, the cells were harvested for flow cytometric analysis.
Cells in good condition were collected, and first washed twice with PBS. After washing, each sample was re-suspended with 100 µL of PBS and 0.5 µL of the fluorescent antibody prepared according to the manufacturer’s instructions to distinguish dead and live cells was added. The samples were stained in the dark at 4° C. for 30 min. After 30 min, the samples were washed twice with 1mL of the running buffer and the tubes were centrifuged at 300 g for 5 min at 4° C. The blocking antibody diluent was prepared by adding 2 µL of blocking antibody TruStain fcX™ (anti-mouse CD16/32) per 100 µL running buffer and was added on the basis of the 100 µL system of each sample. After blocking for 10 min, according to the manufacturer’s instructions, the fluorescent antibody corresponding to the surface protein was added to the samples, and the reactant was allowed for incubation at 4° C. for 30 min. At this step, a single staining control and an FMO control were set. Then, the samples were washed twice with 1 mL of the running buffer, and centrifuged at 300 g for 5 min at 4° C. each time.
If only surface proteins were to be examined, after centrifugation, the samples were re-suspended with 300 µL of PBS and immediately input into machines, or the samples were fixed with 4% paraformaldehyde for 15 min, and centrifuged at 500 g for 7 min. […]
On the technique in general: Flow cytometry measures light scatter and fluorescence of single cells or particles in a stream.

Setting [4] is: each dose group, oral once per day.

Regarding `CNC(=O)c1cccc2cc(Oc3ccnc(NC(=O)c4ccc(N5C[C@@H](C)N[C@@H](C)C5)cc4)c3)ccc12` [Compound I], in assay [1] (10 mg/kg group), the “infiltration of Granzyme B+CD8+ T cells vs solvent control” value is on record as “significantly increased”. For the same compound, in assay [1] (setting [4]), the “infiltration of CD206+ M2-biased macrophages in TAMs” value is “further down-regulated” and the “infiltration of TAMs in tumor tissue vs solvent control” value was “significantly reduced”. In addition, in assay [1] (oral once per day), the “infiltration of CD8+ T cells vs solvent control” value was “no significant change”, the “infiltration of IFNγ+CD8+ T cells vs solvent control” value is recorded as “no significant change” and the “infiltration of Treg cells” value is given as “significantly reduced”. Moreover, in assay [2], the “CD8+ T cell proliferation compared to solvent control” value is given as “substantially increased”. In addition, the “expression level of surface marker CD206 (M2-type marker)” value in assay [3] (25, 50 and 100 nM) was “significantly inhibit”. Further, in assay [3], the “expression level of surface marker CD86 (M1-type marker)” value was “significantly enhance” and the “expression level of surface marker MHC-II (M1-type marker)” value was “significantly enhance”.
